Experimental data: patent US8268827B2, “Pyridazinone derivatives as PARP inhibitors” (Istituto di Ricerche di Biologia Molecolare P. Angeletti …, priority 2007, dated 2012)
Structures can show the parent of a compound that is named as a salt.

Key:
[1] = system: BRCA-1 silenced HeLa cells (HeLa shBRCA1-GFP); assay: Proliferation assay in BRCA-1 silenced HeLa cells; format: cell-based; settings: Homo sapiens; BRCA1 silenced HeLa cells, 168 hours; read-out: CC50 in the BRCA1 silenced HeLa cells
How it was run: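 Antiproliferative effect was read by Celltiter Blue fluorescence after 168 h of compound treatment at 37° C., 5% CO2. Cells were matched HeLa pairs, BRCA1-shRNA (>80% silenced, GFP) versus non-shRNA vector control, in DMEM with 10% FCS.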

PARP-1 = target: T1, PARP-1 (Homo sapiens, UniProt P09874); assay: PARP-1 SPA assay; format: biochemical
T1 construct: purchased Trevigen 4668-500-01
Description: Assay buffer: 100 mM Tris pH 8, 4 mM MgCl2, 4 mM Spermine, 200 mM KCl, 0.04% Nonidet P-40.
Nicotinamide-adenine dinucleotide (NAD)/DNA Mix: [^3H-NAD] (250 uCi/ml, 0.4 ul, Perkin-Elmer NET-443H), NAD (1.5 mM, 0.05 ul, SIGMA N-1511), Biotinylated-NAD (250 uM, 0.03 ul, Trevigen 4670-500-01), Activated calf thymus (1 mg/ml, 0.05 ul, Amersham Biosciences 27-4575), H2O (to 10 ul).
Developing Mix: Streptavidin SPA beads (5 mg/ml, Amersham Biosciences RPNQ 0007) dissolved in 500 mM EDTA.
The reaction is performed in 96-well microplate with a final volume of 50 uL/well. Add 5 ul 5% DMSO/compound solution, add enzyme mix (35 ul), start the reaction by adding NAD/DNA mix (10 uL) and incubate for 2 hrs at RT. Stop the reaction by adding developing mix (25 ul) and incubate 15 min at RT. Measure using a Packard TOP COUNT instrument.

T1 sequence (P09874 whole entry): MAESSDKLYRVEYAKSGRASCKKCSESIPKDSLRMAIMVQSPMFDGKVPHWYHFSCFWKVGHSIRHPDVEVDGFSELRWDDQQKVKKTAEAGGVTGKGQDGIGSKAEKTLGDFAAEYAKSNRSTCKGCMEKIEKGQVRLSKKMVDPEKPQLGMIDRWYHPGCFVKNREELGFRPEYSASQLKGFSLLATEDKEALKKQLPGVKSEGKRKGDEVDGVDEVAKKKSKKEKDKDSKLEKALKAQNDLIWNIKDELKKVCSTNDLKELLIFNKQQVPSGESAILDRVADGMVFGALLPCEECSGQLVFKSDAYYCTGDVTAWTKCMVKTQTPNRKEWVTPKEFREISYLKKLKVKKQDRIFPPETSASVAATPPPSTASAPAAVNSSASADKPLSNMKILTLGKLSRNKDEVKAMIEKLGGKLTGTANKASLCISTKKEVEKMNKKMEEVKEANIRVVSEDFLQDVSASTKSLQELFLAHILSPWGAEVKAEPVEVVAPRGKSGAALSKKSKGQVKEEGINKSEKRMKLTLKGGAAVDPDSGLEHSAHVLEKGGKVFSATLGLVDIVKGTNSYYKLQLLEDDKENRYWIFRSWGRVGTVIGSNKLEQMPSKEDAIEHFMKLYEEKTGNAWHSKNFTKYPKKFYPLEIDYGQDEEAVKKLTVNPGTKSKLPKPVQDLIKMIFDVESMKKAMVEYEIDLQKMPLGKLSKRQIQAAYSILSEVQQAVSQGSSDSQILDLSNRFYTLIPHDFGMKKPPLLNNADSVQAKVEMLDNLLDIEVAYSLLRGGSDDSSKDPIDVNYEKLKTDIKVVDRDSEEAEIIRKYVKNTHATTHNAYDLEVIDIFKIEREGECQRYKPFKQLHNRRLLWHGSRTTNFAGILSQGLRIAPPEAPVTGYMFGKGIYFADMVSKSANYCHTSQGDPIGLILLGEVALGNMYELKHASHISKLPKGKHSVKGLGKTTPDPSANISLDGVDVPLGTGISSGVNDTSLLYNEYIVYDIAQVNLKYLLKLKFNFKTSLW

SMILES	IC50 (PARP-1) [nM]	CC50 [1] [nM]
Cc1c(Cc2ccc(F)c(C(=O)N3CCN(CC4(c5ccccc5)CCOCC4)C(=O)C3)c2)n[nH]c(=O)c1C [Example 56, 6-[4-Fluoro-3-({3-oxo-4-[(4-phenyltetrahydro-2H-pyran-4-yl)methyl]piperazin-1-yl}carbonyl)benzyl]-4,5-dimethyl-3-oxo-2,3-dihydropyridazin-1-ium trifluoroacetate]	5 to 25	< 5000
Cc1c(Cc2ccc(F)c(C(=O)N3CCN(CCc4cccc(F)c4)C(=O)C3)c2)n[nH]c(=O)c1C [Example 59, 6-[4-Fluoro-3-({4-[2-(3-fluorophenyl)ethyl]-3-oxopiperazin-1-yl}carbonyl)benzyl]-4,5-dimethyl-3-oxo-2,3-dihydropyridazin-1-ium trifluoroacetate]	< 5	50 to 500
Cc1c(Cc2ccc(F)c(C(=O)N3CCN(c4cnc5ccccc5c4)C(=O)C3)c2)n[nH]c(=O)c1C [Example 60, 6-{4-Fluoro-3-[(3-oxo-4-quinolin-3-ylpiperazin-1-yl)carbonyl]benzyl}-4,5-dimethylpyridazin-3(2H)-one]	< 5	< 50
Cc1c(Cc2ccc(F)c(C(=O)N3CCN(c4cc(C(F)(F)F)ccn4)C(=O)C3)c2)n[nH]c(=O)c1C [Example 61, 3-[4-Fluoro-3-({3-oxo-4-[4-(trifluoromethyl)pyridin-2-yl]piperazin-1-yl}carbonyl)benzyl]-4,5-dimethyl-6-oxo-1,6-dihydropyridazin-1-ium trifluoroacetate]	5 to 25	50 to 500
Cc1c(Cc2ccc(F)c(C(=O)N3CCN([C@@H]4CCCC[C@H]4c4ccccc4)C(=O)C3)c2)n[nH]c(=O)c1C [Example 67, 6-[4-Fluoro-3-({3-oxo-4-[(1R,2S)-2-phenylcyclohexyl]piperazin-1-yl}carbonyl)benzyl]-4,5-dimethyl-3-oxo-2,3-dihydropyridazin-1-ium trifluoroacetate]	5 to 25	50 to 500
Cc1c(Cc2ccc(F)c(C(=O)N3CCN(CC(F)(F)F)C(=O)C3)c2)n[nH]c(=O)c1C [Example 72, 6-(4-Fluoro-3-{[3-oxo-4-(2,2,2-trifluoroethyl)piperazin-1-yl]carbonyl}benzyl)-4,5-dimethyl-3-oxo-2,3-dihydropyridazin-1-ium trifluoroacetate]	5 to 25	50 to 500
Cc1c(Cc2ccc(F)c(C(=O)N3CCN(C4CCOC(C)(C)C4)C(=O)C3)c2)n[nH]c(=O)c1C (stereo not drawn) [Example 76, 6-(3-{[4-(2,2-Dimethyltetrahydro-2H-pyran-4-yl)-3-oxopiperazin-1-yl]carbonyl}-4-fluorobenzyl)-4,5-dimethylpyridazin-3(2H)-one trifluoroacetate]	< 5	< 5000
Cc1c(Cc2ccc(F)c(C(=O)N3CC(=O)N(c4ccccc4)C(C)(C)C3)c2)n[nH]c(=O)c1C [Example 77, 6-{3-[(3,3-Dimethyl-5-oxo-4-phenylpiperazin-1-yl)carbonyl]-4-fluorobenzyl}-4,5-dimethylpyridazin-3(2H)-one]	< 5	< 50
O=C(c1cc(Cc2cc(C(F)(F)C(F)(F)F)c(=O)[nH]n2)ccc1F)N1CCN(C2CCCC2)C(=O)C1 [Example 81, 6-{3-[(4-Cyclopentyl-3-oxopiperazin-1-yl)carbonyl]-4-fluorobenzyl}-4-(pentafluoroethyl)pyridazin-3(2H)-one]	5 to 25	50 to 500
Cc1c(Cc2ccc(F)c(C(=O)N3CCN(c4ccc(C#N)cc4)C(=O)C3)c2)n[nH]c(=O)c1C [Example 94, 3-(3-{[4-(4-Cyanophenyl)-3-oxopiperazin-1-yl]carbonyl}-4-fluorobenzyl)-4,5-dimethyl-6-oxo-1,6-dihydropyridazin-1-ium trifluoroacetate]	< 5	50 to 500
Cc1c(Cc2ccc(F)c(C(=O)N3CCN(c4ccc(S(C)(=O)=O)cc4)C(=O)C3)c2)n[nH]c(=O)c1C [Example 95, 3-[4-Fluoro-3-({4-[4-(methylsulfonyl)phenyl]-3-oxopiperazin-1-yl}carbonyl)benzyl]-4,5-dimethyl-6-oxo-1,6-dihydropyridazin-1-ium trifluoroacetate]	< 5	50 to 500
Cc1c(Cc2ccc(F)c(C(=O)N3CCN(C(c4cccnc4)C(F)F)C(=O)C3)c2)n[nH]c(=O)c1C (stereo not drawn) [Example 96, 6-(3-{[4-(2,2-difluoro-1-pyridin-3-ylethyl)-3-oxopiperazin-1-yl]carbonyl}-4-fluorobenzyl)-4,5-dimethyl-3-oxo-2,3-dihydropyridazin-1-ium trifluoroacetate]	5 to 25	< 5000
Cc1c(Cc2ccc(F)c(C(=O)N3CCN(CC4(C)CCCO4)C(=O)C3)c2)n[nH]c(=O)c1C (stereo not drawn) [Example 97, 6-[4-fluoro-3-({4-[(2-methyltetrahydrofuran-2-yl)methyl]-3-oxopiperazin-1-yl}carbonyl)benzyl]-4,5-dimethyl-3-oxo-2,3-dihydropyridazin-1-ium trifluoroacetate]	5 to 25	< 5000
Cc1c(Cc2ccc(F)c(C(=O)N3CCN(C4CCOCC4)C(=O)C3)c2)n[nH]c(=O)c1C [Example 120, 6-(4-fluoro-3-{[3-oxo-4-(tetrahydro-2H-pyran-4-yl)piperazin-1-yl]carbonyl}benzyl)-4,5-dimethyl-3-oxo-2,3-dihydropyridazin-1-ium trifluoroacetate]	5 to 25	< 5000
CCc1cc(Cc2ccc(F)c(C(=O)N3CCN(C4CCCOC4)C(=O)C3)c2)n[nH]c1=O (stereo not drawn) [Example 133, 4-ethyl-6-(4-fluoro-3-{[3-oxo-4-(tetrahydro-2H-pyran-3-yl)piperazin-1-yl]carbonyl}benzyl)-3-oxo-2,3-dihydropyridazin-1-ium trifluoroacetate]	5 to 25	50 to 500
CCc1cc(Cc2ccc(F)c(C(=O)N3CCN(CC(F)(F)F)C(=O)C3)c2)n[nH]c1=O [Example 134, 4-ethyl-6-(4-fluoro-3-{[3-oxo-4-(2,2,2-trifluoroethyl)piperazin-1-yl]carbonyl}benzyl)-3-oxo-2,3-dihydropyridazin-1-ium trifluoroacetate]	5 to 25	< 5000
Cc1c(Cc2ccc(F)c(C(=O)N3CC(=O)N4CCCC[C@H]4C3)c2)n[nH]c(=O)c1C(F)(F)F [Example 135, 3-(4-Fluoro-3-{[(9aS)-4-oxooctahydro-2h-pyrido[1,2-a]pyrazin-2-yl]carbonyl}benzyl)-4-methyl-6-oxo-5-(trifluoromethyl)-1,6-dihydropyridazin-1-ium trifluoroacetate]	5 to 25	< 50

Continued, in another order:

IC50 (PARP-1) [nM]	SMILES	CC50 [1] [nM]
5 to 25	Cc1c(Cc2ccc(F)c(C(=O)N3CCN(C4CCC4)C(=O)C3)c2)n[nH]c(=O)c1C [Example 57, 6-{3-[(4-Cyclobutyl-3-oxopiperazin-1-yl)carbonyl]-4-fluorobenzyl}-4,5-dimethyl-3-oxo-2,3-dihydropyridazin-1-ium trifluoroacetate]	50 to 500
< 5	Cc1c(Cc2ccc(F)c(C(=O)N3CCN(C4CCCCCC4)C(=O)C3)c2)n[nH]c(=O)c1C [Example 73, 6-{3-[(4-Cycloheptyl-3-oxopiperazin-1-yl)carbonyl]-4-fluorobenzyl}-4,5-dimethyl-3-oxo-2,3-dihydropyridazin-1-ium trifluoroacetate]	< 50
< 5	Cc1c(Cc2ccc(F)c(C(=O)N3CC(=O)N4CCCC[C@@H]4C3)c2)n[nH]c(=O)c1C [Example 90, (9aR)-2-{5-[(4,5-Dimethyl-6-oxo-1,6-dihydropyridazin-3-yl)methyl]-2-fluorobenzoyl}octahydro-4H-pyrido[1,2-a]pyrazin-4-one trifluoroacetate]	< 50
5 to 25	Cc1c(Cc2ccc(F)c(C(=O)N3CCN([C@H]4CCOC4)C(=O)C3)c2)n[nH]c(=O)c1C [Example 113, 6-[4-Fluoro-3-({3-oxo-4-[(3S)-tetrahydrofuran-3-yl]piperazin-1-yl}carbonyl)benzyl]-4,5-dimethylpyridazin-3(2H)-one]	50 to 500
5 to 25	Cc1c(Cc2ccc(F)c(C(=O)N3CC(=O)N(C4CCCC4)[C@@H](C)C3)c2)n[nH]c(=O)c1C [Example 114, 6-(3-{[(3S)-4-cyclopentyl-3-methyl-5-oxopiperazin-1-yl]carbonyl}-4-fluorobenzyl)-4,5-dimethylpyridazin-3(2H)-one]	< 50
5 to 25	Cc1c(Cc2ccc(F)c(C(=O)N3CC(=O)N(C4CCCC4)[C@H](C)C3)c2)n[nH]c(=O)c1C [Example 115, 6-(3-{[(3R)-4-cyclopentyl-3-methyl-5-oxopiperazin-1-yl]carbonyl}-4-fluorobenzyl)-4,5-dimethylpyridazin-3(2H)-one]	< 5000
5 to 25	Cc1c(Cc2ccc(F)c(C(=O)N3CC(=O)N(C4CCCCC4)C(C)C3)c2)n[nH]c(=O)c1C (stereo not drawn) [Example 125, 3-{3-[(4-Cyclohexyl-3-methyl-5-oxopiperazin-1-yl)carbonyl]-4-fluorobenzyl}-4,5-dimethyl-6-oxo-1,6-dihydropyridazin-1-ium trifluoroacetate]	< 50
